Data from PubChem BioAssay (NCI).
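Growth conditions: 96-well plates. Treatment: test compound, 48 hours, 5 concentrations. Analysis: linear interpolation between bracketing concentrations; unreached endpoints set to highest concentration. GI50 marks 50% less growth. TGI marks complete inhibition of growth.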

Columns and labels:
Assay in all cases: DTP human tumour cell line panel, 48 h
A498 renal = tested on: A498 renal
ACHN renal = tested on: ACHN renal
CAKI-1 renal = tested on: CAKI-1 renal
HCC-2998 colon = tested on: HCC-2998 colon
M14 melanoma = tested on: M14 melanoma
NCI-H23 lung = tested on: NCI-H23 lung
RPMI-8226 leukemia = tested on: RPMI-8226 leukemia
SF-539 CNS = tested on: SF-539 CNS
SK-MEL-28 melanoma = tested on: SK-MEL-28 melanoma
SK-MEL-5 melanoma = tested on: SK-MEL-5 melanoma

SMILES | GI50 (A498 renal) [µM] | TGI (A498 renal) [µM] | GI50 (ACHN renal) [µM] | TGI (ACHN renal) [µM] | GI50 (CAKI-1 renal) [µM] | TGI (CAKI-1 renal) [µM] | GI50 (HCC-2998 colon) [µM] | TGI (HCC-2998 colon) [µM] | GI50 (M14 melanoma) [µM] | TGI (M14 melanoma) [µM] | GI50 (NCI-H23 lung) [µM] | TGI (NCI-H23 lung) [µM] | GI50 (RPMI-8226 leukemia) [µM] | TGI (RPMI-8226 leukemia) [µM] | GI50 (SF-539 CNS) [µM] | TGI (SF-539 CNS) [µM] | GI50 (SK-MEL-28 melanoma) [µM] | TGI (SK-MEL-28 melanoma) [µM] | GI50 (SK-MEL-5 melanoma) [µM] | TGI (SK-MEL-5 melanoma) [µM]
CCCCCC[C@H](C)Nc1nc2ccccc2c2occc12 | 11.3 | 25.8 | 11.7 | 23.9 | 10.6 | 26.3 | 1.4 | 8.94 | 7.88 | 20.8 | 0.576 | 7.23 | 3.74 | 44.3 | 4.16 | 15.2 | 21.2 | 47.2 | 3.66 | 18
O=c1[nH]c2nc(NC3CCOCC3)ncc2cc1Oc1ccc(F)cc1F | > 25 | > 25 | > 25 | > 25 | > 25 | > 25 | > 25 | > 25 | > 25 | > 25 | > 25 | > 25 | > 25 | > 25 | > 25 | > 25 | > 25 | > 25 | > 25 | > 25
Cc1cc(N=C2C=C(Br)C(=O)C(Br)=C2)cc(CN(CC(=O)O)CC(=O)O)c1O |  | > 100 |  | > 100 |  | > 100 |  | > 100 |  | > 100 |  | > 100 |  | > 100 |  | > 100 |  | > 100 |  | > 100
NNC(=O)C(=O)N/N=C1\CCC(=O)CC1C(=O)CCC(=O)Nc1ccc(Cl)cc1 (centres undefined) |  | > 100 |  | > 100 |  | > 100 |  | > 100 |  | > 100 |  | > 100 |  | > 100 |  | > 100 |  | > 100 |  | > 100
O=c1cc(N/N=C/c2ccc(F)cc2)c2cc(Cl)ccc2[nH]1 | 14.8 | 92.7 | 17.2 | 72.1 | 23.5 | > 100 | 32.4 | > 100 | 10.2 | > 100 | 19.5 | 76.1 | 17 | > 100 | 23.6 | 78.2 | 19.8 | > 100 | 3.54 | 14.1
O=P1(S)OC[C@H]2O[C@@H]3[C@H](F)[C@@H]2OP(O)(=S)OC[C@H]2O[C@H]([C@H](F)[C@@H]2O1)n1cnc2c(ncnc21)NC/C=C/CNc1ncnc2c1ncn23 (some centres undefined) | 0.543 | 11.5 | > 100 | > 100 | > 100 | > 100 | > 100 | > 100 | > 100 | > 100 | > 100 | > 100 | > 100 | > 100 | 0.229 | > 39.9 | > 100 | > 100 | > 100 | > 100
O=C(c1ccccc1)c1c(NCC(O)CN2CCOCC2)n(Cc2ccccc2)c(=O)n(Cc2ccccc2)c1=O (centres undefined) | 27.5 | > 88.8 | 40.5 | > 100 | 32.5 | > 100 | 1.26 | 4.86 | 38.9 | > 100 | 1.19 |  | 24 | > 92.4 | > 68 | > 100 | > 64.1 | > 100 | 33.4 | > 100
CCN(c1cc(-c2ccc(CN3CCOCC3)cc2)cc(C(=O)NCc2c(C)cc(C)[nH]c2=O)c1C)C1CCOCC1 | 9.79 | 37.2 | 26 | 74.9 | 20.3 | > 100 | 20.4 | 49.7 | 19.9 | 42.3 | 59.4 | > 100 | 20 | > 59.8 | 16.3 | 33.2 | 20.5 | 47.7 | 16.3 | 31.7
COC(=O)COc1ccc(/C=C2/N=C(c3ccccc3)N(c3c(C)n(C)n(-c4ccccc4)c3=O)C2=O)cc1 | 26.1 | 44.1 | 17.6 | 31.4 | > 100 | > 100 | 16.9 | 33.4 | 32.5 | > 100 | 57.5 | > 100 | 21.7 | 44.8 | 16.1 | 30.2 | 16.8 | 30.9 | 26 | 60.7
CCOC(=O)CCn1ncc(Cl)c(Cl)c1=O |  | 39.6 |  | 33.7 |  | 10.8 |  | 10.4 |  | 14.5 |  | 4.66 |  | 15.3 |  | 27.3 |  | 6.58 |  | 25.3
C=CCO/N=C(\OC(=O)c1ccc([N+](=O)[O-])cc1)c1ccccc1 |  | > 100 |  | > 100 |  | > 100 |  | > 100 |  | > 100 |  | > 100 |  | > 100 |  | > 100 |  | > 100 |  | > 100
COc1cc2c(cc1OC)C(=O)/C(=C/c1cc(-c3ccc4c(c3)OCO4)n[nH]1)C2 | 1.33 | 2.83 | 1.73 | 3.23 | 1.5 | 3 | 1.88 | 3.44 | 1.82 | 3.4 | 1.87 | 3.91 | 0.233 | 0.623 | 1.27 | 2.57 | 1.89 | 3.4 | 1.67 | 3.06
O=C1/C(=C/c2ccccc2)CN(C(=O)CCN2CCCC2)C/C1=C\c1ccccc1 |  | 13 |  | 4.78 |  | 14.8 |  | 3.22 |  | 3.62 |  | 4.35 |  | 2.46 |  | 5.4 |  | 3.38 |  | 3.48
O=C1CC(c2[nH]nc3ccccc23)C(=O)N1c1ccccc1 (centres undefined) |  | > 100 |  | > 100 |  | > 100 |  | > 100 |  | > 100 |  | > 100 |  | > 100 |  | > 100 |  | > 100 |  | > 100
Cc1c2cc(Cl)c3ccccc3c2c[n+]2ccccc12 | > 49.4 | > 100 | 22 | > 100 | 21.8 | > 100 | 4.22 | 17.8 | 3.62 | 15.5 | 2.74 | 23.5 | 7.75 | 46 | 1.71 | 9.35 | 1.8 | 4.87 | 1.22 | 2.92
C#Cc1nc2ccccc2c(=O)[nH]1 | 1.58 | 3.26 | 0.336 | 1.32 | 1.43 | 3.47 | 1.6 | 3.11 | 1.07 | 3.06 | 1.69 | 4.77 | 0.213 | 0.635 | 0.345 | 1.42 | 0.861 | 3.42 | 0.633 | 2.01
Cc1c2c(c(C)c3c4c(oc13)CCCC4)C=NCC2 |  | 31.9 |  | 37.7 |  | 28 |  | 36.1 |  | 44.5 |  | 31.9 |  | 43 |  | 28.9 |  | 35.7 |  | 30.8
COc1ccc(CCc2cc(OC)cc(OC)c2)cc1 |  | > 100 |  | > 100 |  | > 100 |  | 51.2 |  | > 100 |  | > 100 |  | 94.8 |  | > 100 |  | > 100 |  | > 87
c1ccc(-c2nc(N3CCOCC3)c3c4c(sc3n2)CCCCCC4)nc1 | 1.65 | 8.63 | 4.49 | 16.6 | 2.29 | 16.1 | 6.99 | 19.8 | 4.17 | 16.5 | 5.99 | 26.5 | 2.12 | 9.67 | 13 | 26.7 | 11 | 23.2 | 1.99 | 9.45
O=C(O)CCNCCCCNCCC(=O)O |  | > 100 |  | > 100 |  | > 100 |  | > 100 |  | > 100 |  | > 100 |  | > 100 |  | > 100 |  | > 100 |  | > 100
COc1ccc(C(=O)NNc2nc(Cl)nc(N3CCN(C(c4ccccc4)c4ccccc4)CC3)n2)cc1 | 10.4 | 23.2 | 1.76 | 3.16 | 1.84 | 3.48 | 1.49 | 2.89 | 1.75 | 3.58 | 1.88 | 4.02 | 33.7 | > 100 | 1.73 | 3.21 | 1.84 | 3.76 | 16.7 | 31.7
